Measurements taken from paper PMC11591946, “Exploring the Potential of Biomimetic Peptides in Targeting Fibrillar and Filamentous Alpha-Synuclein—An In Silico and Experimental Approach to Parkinson’s Disease” (Biomimetics, 2024).
Where no end group is shown, it is not given here.

How the values were obtained:
ASyn preformed fibrils = molecular target: T1, ASyn preformed fibrils (Homo sapiens, UniProt P37840); experiment: Thioflavin-T (ThT) assay; type: biochemical; details: 20 μM ASyn preformed fibrils + 20 μM peptide in PBS, 70 μM ThT; for reduction in ThT fluorescence intensity: excitation 440 nm, over the course of 46 h
T1 construct: purchased StressMarq
Description: Thioflavin T assay was conducted to assess the effect of five peptides (PYYYWKELAQM; PYYYWKDPNGS; EQALMPEGMGLEDPNGS; ELAQMPYYYWKDPNGS; ELAQMPWIWYWKDPNGS) on ASyn preformed fibrils (StressMarq). […] [75]. The samples were prepared by incubating 20 μM of ASyn diluted in PBS buffer with 20 μM of each peptide. To each sample, 70 μM ThT dye diluted in deionized water was added. The prepared solutions were then transferred into quartz cuvettes, and the emission spectra at different time intervals were recorded. Samples were excited at 440 nm, and emission spectra were recorded between 460 nm to 550 nm at a slit of 3 nm.

[1] = DPPH radical scavenging antioxidant assay; type: biochemical; details: colorimetric DPPH kit; at the highest concentrations (2, 10, 20, 40 µM tested)
Description: To investigate the antioxidant activity of the five peptides (PYYYWKELAQM; PYYYWKDPNGS; EQALMPEGMGLEDPNGS; ELAQMPYYYWKDPNGS; ELAQMPWIWYWKDPNGS), we conducted a colorimetric DPPH (2,2-diphenyl-1-picrylhydrazyl) radical scavenging assay using an antioxidant assay kit (AbCam, USA). In general, the protocol from the assay kit was followed to determine the antioxidant activity. Four different concentrations of each of the peptides were utilized (2 µM, 10 µM, 20 µM, and 40 µM). A standard curve was generated using Trolox, and then the activities of each of the peptides were compared by calculating the inhibition ratio.

ELAQMGPEGPMGLEDPNGS [ELAQMGPEGPMGLEDPNGS]
reduction in ThT fluorescence intensity (ASyn preformed fibrils): 32%

ELAQMPYYYWKDPNGS [ELAQMPYYYWKDPNGS]
reduction in ThT fluorescence intensity (ASyn preformed fibrils): 27%

EQALMPWIWYWKDPNGS [EQALMPWIWYWKDPNGS]
reduction in ThT fluorescence intensity at 48 h (ASyn preformed fibrils; at 48 h): 42% | DPPH radical scavenging activity in comparison to Trolox (standard) [1]: 19%

PYYYWKDPNGS [PYYYWKDPNGS]
reduction in ThT fluorescence intensity (ASyn preformed fibrils): 46.2%
